We go through 3 compounds from US4448775A, “3-Carbamoyloxymethylcephem derivatives, and antibacterial drugs containing same” (Eisai Co., Ltd., priority 1981, dated 1984).

In brackets after ≈: the same amount, converted by molar mass.

The subject of data set [1] is Klebsiella pneumoniae EK-6. The data set can be described thus: Minimal inhibitory concentration, standard agar dilution method of the Japan Society of Chemotherapy. The following applies: EK6. The class given is cell-based. Here is the method: (§1) Minimal inhibitory concentration (MIC, μg/ml) of certain compounds obtained in the above examples was determined in accordance with the standard agar dilution method of the Japan Society of Chemotherapy.
On the technique in general: Agar dilution tests growth on a series of plates holding different concentrations.

Data set [2] deals with Serratia marcescens ES-75. Described as above. The data set is classed as cell-based. Conditions: ES75. How it is done:
as §1

In data set [3] the test system is Pseudomonas aeruginosa EP-174. The description is as above. Conditions: EP174. The data set is classed as cell-based. Here is the method:
as §1

The subject of the next data set is Proteus morganii EP-14. The data set is described as above. Conditions: Morganella morganii, EP14. The class given is cell-based. How it is done: as §1
A further data set deals with Escherichia coli NIHJ. Described as above. The class given is cell-based. How it is done: as §1
Data set [4] relates to Staphylococcus aureus 209-P. The data set is described as above. The class given is cell-based. Here is the method: as §1
A further data set concerns Proteus vulgaris E-18. The description is as above. The class given is cell-based. Conditions: E18, Proteus vulgaris E-18, lactamase-producing bacterium. Here is the method: as §1
A short description of data set [5]: Acute toxicity, LD50 (mouse, oral administration). Conditions: in vivo. The text has this:
With reference to the compounds of Example Nos. 2, 3 and 4, all their acute toxicity values [LD50 (mouse, oral administration)] amount to above 4 g/kg.

A word on the MIC: it is the least concentration at which growth counts as inhibited. Read a low MIC as inhibition by little substance. For orientation: LD50 means the dose at which mortality reaches 50%. Higher therefore signals a less toxic substance. For `CO[C@@]1(NC(=O)[C@H](NC(=O)c2coc3cc(O)c(O)cc3c2=O)c2ccc(O)cc2)C(=O)N2C(C(=O)O)=C(COC(N)=O)CS[C@@H]21` [Example 4, 7β-[D-2-(6,7-Dihydroxychromon-3-carboxamido)-2-(4-hydroxyphenyl)acetamido]-7α-methoxy-3-carbamoyloxymethyl-3-cephem-4-carboxylic acid], the MIC in data set [1] was at most 0.05 µg/mL; in data set [2] it was 0.4 µg/mL (≈ 0.609 µM); in data set [3], 1.56 µg/mL (≈ 2.38 µM); against Proteus morganii EP-14 it was 6.25 µg/mL (≈ 9.52 µM); against Escherichia coli NIHJ, 1.56 µg/mL (≈ 2.38 µM); in data set [4] it was 6.25 µg/mL (≈ 9.52 µM). Further, in the data set with Proteus vulgaris E-18, inhibition of growth (MIC) required 0.8 µg/mL (≈ 1.22 µM). This compound yielded a median lethal dose (LD50) in data set [5] above 4000 mg/kg.
For the compound `NC(=O)OCC1=C(C(=O)O)N2C(=O)[C@@H](NC(=O)[C@H](NC(=O)c3coc4cc(O)c(O)cc4c3=O)c3ccc(O)cc3)[C@H]2SC1` [Example 2, 7β-[D-2-(6,7-Dihydroxychromon-3-carboxamido)-2-(4-hydroxyphenyl)acetamido]-3-carbamoyloxymethyl-3-cephem-4-carboxylic acid], the MIC in data set [1] was at most 0.05 µg/mL; in data set [2] it was 0.8 µg/mL (≈ 1.28 µM); in data set [3], 0.4 µg/mL (≈ 0.638 µM); in the data set with Proteus morganii EP-14, 25 µg/mL (≈ 39.9 µM); in the data set on Escherichia coli NIHJ, 0.8 µg/mL (≈ 1.28 µM); in data set [4], 3.13 µg/mL (≈ 5 µM). The compound further had a minimal inhibitory concentration (MIC) against Proteus vulgaris E-18 above 100 µg/mL. In addition, the LD50 in data set [5] is above 4000 mg/kg.
As for `CO[C@@]1(NC(=O)[C@H](NC(=O)c2coc3cc(O)c(O)cc3c2=O)c2ccc(O)cc2)C(=O)N2C(C(=O)O)=C(COC(=O)NC(=O)C(Cl)(Cl)Cl)CS[C@@H]21` [Example 3, 7β-[D-2-(6,7-Dihydroxychromon-3-carboxamido)-2-(4-hydroxyphenyl)acetamido]-7α-methoxy-3-trichloroacetylcarbamoyloxymethyl-3-cephem-4-carboxylic acid], the minimal inhibitory concentration (MIC) in data set [1] is at most 0.05 µg/mL; in data set [2] it was 1.56 µg/mL (≈ 1.95 µM); in data set [3], 3.13 µg/mL (≈ 3.9 µM); against Proteus morganii EP-14 it was 12.5 µg/mL (≈ 15.6 µM); against Escherichia coli NIHJ, 3.13 µg/mL (≈ 3.9 µM); in data set [4], 6.25 µg/mL (≈ 7.79 µM). The compound further yielded a minimum inhibitory concentration (MIC) in the data set on Proteus vulgaris E-18 of 3.13 µg/mL (≈ 3.9 µM). Moreover, the LD50 in data set [5] was above 4000 mg/kg.
